Measured values published in patent publication US9938281B2 (Merck Sharp & Dohme Corp., priority 2012, dated 2018).

How the values were obtained:
[1] = molecular target: T1, PI3K-alpha (Homo sapiens, UniProt P42336); assay: HTRF PI3K biochemical assay, alpha isoform; conditions: ratio PI3K-alpha IC50 value / PI3K-delta IC50 value
T1 construct: purchased Upstate; Millipore 14-602

[2] = molecular target: T2, PI3K-delta (Homo sapiens, UniProt O00329); assay: HTRF PI3K biochemical assay, delta isoform; conditions: form screened (neutral or TFA salt) given, read-out: PI3Kdelta IC50
T2 construct: purchased Upstate; Millipore 14-604
T2 sequence (O00329 whole entry, canonical isoform): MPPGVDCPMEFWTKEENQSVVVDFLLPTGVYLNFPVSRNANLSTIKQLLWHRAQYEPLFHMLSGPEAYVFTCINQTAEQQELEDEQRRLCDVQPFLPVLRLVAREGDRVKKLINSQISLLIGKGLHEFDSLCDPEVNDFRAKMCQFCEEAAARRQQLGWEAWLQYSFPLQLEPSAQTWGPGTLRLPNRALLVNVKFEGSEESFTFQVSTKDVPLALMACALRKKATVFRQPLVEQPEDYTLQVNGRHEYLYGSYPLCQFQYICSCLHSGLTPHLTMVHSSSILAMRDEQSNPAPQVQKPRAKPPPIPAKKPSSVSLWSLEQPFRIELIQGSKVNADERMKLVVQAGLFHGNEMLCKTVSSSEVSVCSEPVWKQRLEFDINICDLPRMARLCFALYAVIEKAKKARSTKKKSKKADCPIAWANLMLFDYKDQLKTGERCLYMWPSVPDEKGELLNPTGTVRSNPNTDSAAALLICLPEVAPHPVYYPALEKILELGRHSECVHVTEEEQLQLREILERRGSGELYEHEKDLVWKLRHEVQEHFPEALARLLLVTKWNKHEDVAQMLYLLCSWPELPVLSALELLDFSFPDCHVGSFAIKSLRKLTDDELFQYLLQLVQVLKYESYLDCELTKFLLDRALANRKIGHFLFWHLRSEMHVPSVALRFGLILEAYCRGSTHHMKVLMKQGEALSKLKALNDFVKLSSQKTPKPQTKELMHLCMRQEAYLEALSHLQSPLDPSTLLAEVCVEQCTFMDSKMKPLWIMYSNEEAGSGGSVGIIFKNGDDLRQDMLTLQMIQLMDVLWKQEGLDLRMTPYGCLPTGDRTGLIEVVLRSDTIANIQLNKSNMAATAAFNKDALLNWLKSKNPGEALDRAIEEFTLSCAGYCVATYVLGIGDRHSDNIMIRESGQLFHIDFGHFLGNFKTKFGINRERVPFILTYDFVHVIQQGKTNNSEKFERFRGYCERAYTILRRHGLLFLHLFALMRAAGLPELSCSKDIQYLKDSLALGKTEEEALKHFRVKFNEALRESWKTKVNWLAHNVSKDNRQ
T2 sequence (P27986 whole entry partner, canonical isoform): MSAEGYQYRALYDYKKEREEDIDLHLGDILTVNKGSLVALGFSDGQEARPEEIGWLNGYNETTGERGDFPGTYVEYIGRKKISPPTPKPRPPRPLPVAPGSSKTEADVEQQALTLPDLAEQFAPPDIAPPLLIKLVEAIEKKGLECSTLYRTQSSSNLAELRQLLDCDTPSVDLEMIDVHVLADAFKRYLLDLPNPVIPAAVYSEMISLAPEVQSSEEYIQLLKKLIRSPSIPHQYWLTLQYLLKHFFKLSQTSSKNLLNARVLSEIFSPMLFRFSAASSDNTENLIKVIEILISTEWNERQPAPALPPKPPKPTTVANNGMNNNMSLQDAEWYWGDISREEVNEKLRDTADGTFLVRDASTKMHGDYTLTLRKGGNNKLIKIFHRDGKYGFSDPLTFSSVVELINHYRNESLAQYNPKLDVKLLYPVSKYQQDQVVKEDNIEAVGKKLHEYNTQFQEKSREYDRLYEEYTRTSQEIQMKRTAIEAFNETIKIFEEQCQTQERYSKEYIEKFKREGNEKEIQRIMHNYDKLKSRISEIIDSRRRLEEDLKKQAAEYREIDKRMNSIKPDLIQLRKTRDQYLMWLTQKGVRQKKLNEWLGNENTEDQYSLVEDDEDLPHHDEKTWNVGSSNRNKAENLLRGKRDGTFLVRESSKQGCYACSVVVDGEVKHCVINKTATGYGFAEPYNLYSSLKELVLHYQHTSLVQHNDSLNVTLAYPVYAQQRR

T1 sequence (P42336 whole entry, canonical isoform): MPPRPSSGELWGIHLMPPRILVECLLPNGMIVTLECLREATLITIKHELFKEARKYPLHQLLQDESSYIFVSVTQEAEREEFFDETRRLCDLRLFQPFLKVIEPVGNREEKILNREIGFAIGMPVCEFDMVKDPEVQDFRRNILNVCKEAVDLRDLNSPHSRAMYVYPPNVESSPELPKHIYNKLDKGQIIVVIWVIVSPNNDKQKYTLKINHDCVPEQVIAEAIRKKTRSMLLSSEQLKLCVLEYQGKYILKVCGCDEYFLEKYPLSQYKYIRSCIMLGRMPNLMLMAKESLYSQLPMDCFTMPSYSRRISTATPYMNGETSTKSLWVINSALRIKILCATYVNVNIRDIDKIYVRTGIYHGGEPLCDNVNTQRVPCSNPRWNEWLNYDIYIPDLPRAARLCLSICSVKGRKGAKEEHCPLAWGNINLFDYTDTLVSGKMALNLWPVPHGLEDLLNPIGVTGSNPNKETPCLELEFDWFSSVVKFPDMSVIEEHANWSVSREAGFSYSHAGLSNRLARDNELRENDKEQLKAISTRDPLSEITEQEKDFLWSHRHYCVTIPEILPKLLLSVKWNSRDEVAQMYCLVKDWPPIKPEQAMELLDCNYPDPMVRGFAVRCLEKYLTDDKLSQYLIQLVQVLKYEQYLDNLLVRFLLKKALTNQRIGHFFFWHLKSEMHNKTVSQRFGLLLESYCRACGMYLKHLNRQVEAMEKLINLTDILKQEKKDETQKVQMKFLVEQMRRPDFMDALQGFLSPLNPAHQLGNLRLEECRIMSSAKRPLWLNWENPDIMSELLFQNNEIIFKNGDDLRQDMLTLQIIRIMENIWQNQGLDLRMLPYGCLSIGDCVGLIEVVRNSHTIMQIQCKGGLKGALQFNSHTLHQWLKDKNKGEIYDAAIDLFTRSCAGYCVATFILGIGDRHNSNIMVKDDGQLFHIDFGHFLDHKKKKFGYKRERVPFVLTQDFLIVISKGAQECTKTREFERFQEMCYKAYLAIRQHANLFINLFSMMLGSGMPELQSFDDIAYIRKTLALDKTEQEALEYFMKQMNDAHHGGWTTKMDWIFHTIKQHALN
T1 sequence (P27986 whole entry partner, canonical isoform): as the sequence (P27986 whole entry partner, canonical isoform) above

CCn1c(-c2ccc(C(F)(F)F)cc2)nc2c(N[C@H]3CCN(C(=O)C4CC4)C3)ncnc21 [Compound 3-30, N-[(3S)-1-(cyclopropylcarbonyl)pyrrolidin-3-yl]-9-ethyl-8-[4-(trifluoromethyl)phenyl]-9H-purin-6-amine]
Selectivity versus PI3Kalpha [1]: >10 | IC50 [2]: 1.2 nM

CCC(=O)N1CC[C@H](Nc2ncnc3c2nc(-c2ccc(OC)nc2)n3C)C1 [Compound 3-31, 8-(6-methoxypyridin-3-yl)-9-methyl-N-[(3S)-1-propanoylpyrrolidin-3-yl]-9H-purin-6-amine]
Selectivity versus PI3Kalpha [1]: >10 | IC50 [2]: 4 nM

CCC(=O)N1CC[C@H](Nc2ncnc3c2nc(-c2ccc(OC)c(C)c2)n3C)C1 [Compound 3-32, 8-(4-methoxy-3-methylphenyl)-9-methyl-N-[(3S)-1-propanoylpyrrolidin-3-yl]-9H-purin-6-amine]
Selectivity versus PI3Kalpha [1]: >10 | IC50 [2]: 1.9 nM

CCC(=O)N1CC[C@H](Nc2ncnc3c2nc(-c2cnc(OC)c(C#N)c2)n3C)C1 [Compound 3-33, 2-methoxy-5-(9-methyl-6-{[(3S)-1-propanoylpyrrolidin-3-yl]amino}-9H-purin-8-yl)pyridine-3-carbonitrile]
Selectivity versus PI3Kalpha [1]: >10 | IC50 [2]: 2.3 nM

CCC(=O)N1CC[C@H](Nc2ncnc3c2nc(-c2cncc(C(C)(C)O)c2)n3C)C1 [Compound 3-34, 2-[5-(9-methyl-6-{[(3S)-1-propanoylpyrrolidin-3-yl]amino}-9H-purin-8-yl)pyridin-3-yl]propan-2-ol]
Selectivity versus PI3Kalpha [1]: >10 | IC50 [2]: 2 nM

CCn1c(-c2cnc3c(cnn3C)c2)nc2c(N[C@H]3CCN(C(=O)C4CC4)C3)ncnc21 [Compound 3-35, N-[(3S)-1-(cyclopropylcarbonyl)pyrrolidin-3-yl]-9-ethyl-8-(1-methyl-1H-pyrazolo[3,4-b]pyridin-5-yl)-9H-purin-6-amine]
Selectivity versus PI3Kalpha [1]: >10 | IC50 [2]: < 1 nM

CCn1c(-c2cnn(CC(F)(F)F)c2)nc2c(N[C@H]3CCN(C(=O)C4CC4)C3)ncnc21 [Compound 3-36, N-[(3S)-1-(cyclopropylcarbonyl)pyrrolidin-3-yl]-9-ethyl-8-[1-(2,2,2-trifluoroethyl)-1H-pyrazol-4-yl]-9H-purin-6-amine]
Selectivity versus PI3Kalpha [1]: >10 | IC50 [2]: 1.2 nM

CCn1c(-c2cncc(-c3ccccc3)c2)nc2c(N[C@H]3CCN(C(=O)C4CC4)C3)ncnc21 [Compound 3-37, N-[(3S)-1-(cyclopropylcarbonyl)pyrrolidin-3-yl]-9-ethyl-8-(5-phenylpyridin-3-yl)-9H-purin-6-amine]
Selectivity versus PI3Kalpha [1]: >10 | IC50 [2]: 5.4 nM

CCn1c(-c2cncc(Cl)c2)nc2c(N[C@H]3CCN(C(=O)C4CC4)C3)ncnc21 [Compound 3-38, 8-(5-chloropyridin-3-yl)-N-[(3S)-1-(cyclopropylcarbonyl)pyrrolidin-3-yl]-9-ethyl-9H-purin-6-amine]
Selectivity versus PI3Kalpha [1]: >10 | IC50 [2]: 1.8 nM

CCn1c(-c2cnc(CO)nc2)nc2c(N[C@H]3CCN(C(=O)C4CC4)C3)ncnc21 [Compound 3-39, [5-(6-{[(3S)-1-(cyclopropylcarbonyl)pyrrolidin-3-yl]amino}-9-ethyl-9H-purin-8-yl)pyrimidin-2-yl]methanol]
Selectivity versus PI3Kalpha [1]: >10 | IC50 [2]: 3.4 nM

CCn1c(-c2cnc(OC)c(F)c2)nc2c(N[C@H]3CCN(C(=O)c4cocn4)C3)ncnc21 [Compound 3A-1, 9-ethyl-8-(5-fluoro-6-methoxypyridin-3-yl)-N-[(3S)-1-(1,3-oxazol-4-ylcarbonyl)pyrrolidin-3-yl]-9H-purin-6-amine]
Selectivity versus PI3Kalpha [1]: >10 | IC50 [2]: 1 nM

CCn1c(-c2cnc(OC)c(F)c2)nc2c(N[C@H]3CCN(C(=O)c4cncn4C)C3)ncnc21 [Compound 3A-2, 9-ethyl-8-(5-fluoro-6-methoxypyridin-3-yl)-N-{(3S)-1-[(1-methyl-1H-imidazol-5-yl)carbonyl]pyrrolidin-3-yl}-9H-purin-6-amine]
Selectivity versus PI3Kalpha [1]: >10 | IC50 [2]: < 1 nM

CCn1c(-c2ccc(OC)nc2)nc2c(N[C@H]3CCN(C(=O)C4CCOCC4)C3)ncnc21 [Compound 3A-3, 9-ethyl-8-(6-methoxypyridin-3-yl)-N-[(3S)-1-(tetrahydro-2H-pyran-4-ylcarbonyl)pyrrolidin-3-yl]-9H-purin-6-amine]
Selectivity versus PI3Kalpha [1]: >10 | IC50 [2]: < 1 nM

CCn1c(-c2cnc(OC)c(C)c2)nc2c(N[C@H]3CCN(C(=O)C4CCOCC4)C3)ncnc21 [Compound 3A-4, 9-ethyl-8-(6-methoxy-5-methylpyridin-3-yl)-N-[(3S)-1-(tetrahydro-2H-pyran-4-ylcarbonyl)pyrrolidin-3-yl]-9H-purin-6-amine]
Selectivity versus PI3Kalpha [1]: >10 | IC50 [2]: < 1 nM

CCn1c(-c2cnc(OC)c(C)c2)nc2c(N[C@H]3CCN(C(=O)C4CC(F)(F)C4)C3)ncnc21 [Compound 3A-5, N-{(3S)-1-[(3,3-difluorocyclobutyl)carbonyl]pyrrolidin-3-yl}-9-ethyl-8-(6-methoxy-5-methylpyridin-3-yl)-9H-purin-6-amine]
Selectivity versus PI3Kalpha [1]: >10 | IC50 [2]: < 1 nM

CCn1c(-c2cnc(OC)c(C)c2)nc2c(N[C@H]3CCN(C(=O)c4cncn4C)C3)ncnc21 [Compound 3A-6, 9-ethyl-8-(6-methoxy-5-methylpyridin-3-yl)-N-{(3S)-1-[(1-methyl-1H-imidazol-5-yl)carbonyl]pyrrolidin-3-yl}-9H-purin-6-amine]
Selectivity versus PI3Kalpha [1]: >10 | IC50 [2]: < 1 nM

CCn1c(-c2cnc(OC)c(F)c2)nc2c(N[C@H]3CCN(C(=O)C4CC(F)(F)C4)C3)ncnc21 [Compound 3A-7, N-{(3S)-1-[(3,3-difluorocyclobutyl)carbonyl]pyrrolidin-3-yl}-9-ethyl-8-(5-fluoro-6-methoxypyridin-3-yl)-9H-purin-6-amine]
Selectivity versus PI3Kalpha [1]: >10 | IC50 [2]: < 1 nM

CCn1c(-c2ccc(OC)nc2)nc2c(N[C@H]3CCN(C(=O)C4CC(F)(F)C4)C3)ncnc21 [Compound 3A-8, N-{(3S)-1-[(3,3-difluorocyclobutyl)carbonyl]pyrrolidin-3-yl}-9-ethyl-8-(6-methoxypyridin-3-yl)-9H-purin-6-amine]
Selectivity versus PI3Kalpha [1]: >10 | IC50 [2]: < 1 nM

CCn1c(-c2cnc(C)nc2)nc2c(N[C@H]3CCN(c4ccccn4)C3)ncnc21 [Compound 4-1, 9-ethyl-8-(2-methylpyrimidin-5-yl)-N-[(3S)-1-pyridin-2-ylpyrrolidin-3-yl]-9H-purin-6-amine]
Selectivity versus PI3Kalpha [1]: >10 | IC50 [2]: < 1 nM

CCn1c(-c2cnc(C)nc2)nc2c(N[C@H]3CCN(c4ncccn4)C3)ncnc21 [Compound 4-2, 9-ethyl-8-(2-methylpyrimidin-5-yl)-N-[(3S)-1-pyrimidin-2-ylpyrrolidin-3-yl]-9H-purin-6-amine]
Selectivity versus PI3Kalpha [1]: >10 | IC50 [2]: 6.9 nM

CCn1c(-c2cnc(C)nc2)nc2c(N[C@H]3CCN(c4ccc(C)cn4)C3)ncnc21 [Compound 4-3, 9-ethyl-N-[(3S)-1-(5-methylpyridin-2-yl)pyrrolidin-3-yl]-8-(2-methylpyrimidin-5-yl)-9H-purin-6-amine]
Selectivity versus PI3Kalpha [1]: >10 | IC50 [2]: 3.7 nM

CCn1c(-c2ccc(C(F)(F)F)nc2)nc2c(N[C@H]3CCN(c4ccccn4)C3)ncnc21 [Compound 4-4, 9-ethyl-N-[(3S)-1-pyridin-2-ylpyrrolidin-3-yl]-8-[6-(trifluoromethyl)pyridin-3-yl]-9H-purin-6-amine]
Selectivity versus PI3Kalpha [1]: >10 | IC50 [2]: < 1 nM

CCn1c(-c2cnc(C)nc2)nc2c(N[C@H]3CCCN(c4ccccn4)C3)ncnc21 [Compound 4-5, 9-ethyl-8-(2-methylpyrimidin-5-yl)-N-[(3S)-1-pyridin-2-ylpiperidin-3-yl]-9H-purin-6-amine]
Selectivity versus PI3Kalpha [1]: >10 | IC50 [2]: 9.6 nM

CCc1ccnc(N2CC[C@H](Nc3ncnc4c3nc(-c3cnc(C)nc3)n4CC)C2)c1 [Compound 4-6, 9-ethyl-N-[(3S)-1-(4-ethylpyridin-2-yl)pyrrolidin-3-yl]-8-(2-methylpyrimidin-5-yl)-9H-purin-6-amine]
Selectivity versus PI3Kalpha [1]: >10 | IC50 [2]: 4.7 nM

CCn1c(-c2cnc(C)nc2)nc2c(N[C@H]3CCN(c4cccc(OC)n4)C3)ncnc21 [Compound 4-7, 9-ethyl-N-[(3S)-1-(6-methoxypyridin-2-yl)pyrrolidin-3-yl]-8-(2-methylpyrimidin-5-yl)-9H-purin-6-amine]
Selectivity versus PI3Kalpha [1]: >10 | IC50 [2]: 1.4 nM

CCn1c(-c2cnc(C)nc2)nc2c(N[C@H]3CCN(c4cccc(NC)n4)C3)ncnc21 [Compound 4-8, 9-ethyl-N-{(3S)-1-[6-(methylamino)pyridin-2-yl]pyrrolidin-3-yl}-8-(2-methylpyrimidin-5-yl)-9H-purin-6-amine]
Selectivity versus PI3Kalpha [1]: >10 | IC50 [2]: 2.3 nM

CCn1c(-c2cnc(C)nc2)nc2c(N[C@H]3CCN(c4nccc5ccccc45)C3)ncnc21 [Compound 4-9, 9-ethyl-N-[(3S)-1-isoquinolin-1-ylpyrrolidin-3-yl]-8-(2-methylpyrimidin-5-yl)-9H-purin-6-amine]
Selectivity versus PI3Kalpha [1]: >10 | IC50 [2]: 6.6 nM

CCn1c(-c2cnc(C)nc2)nc2c(N[C@H]3CCN(c4ncccc4C)C3)ncnc21 [Compound 4-10, 9-ethyl-N-[(3S)-1-(3-methylpyridin-2-yl)pyrrolidin-3-yl]-8-(2-methylpyrimidin-5-yl)-9H-purin-6-amine]
Selectivity versus PI3Kalpha [1]: >10 | IC50 [2]: 13 nM

CCn1c(-c2cnc(C)nc2)nc2c(N[C@H]3CCN(c4ccc(C#N)cn4)C3)ncnc21 [Compound 4-11, 6-[(3S)-3-{[9-ethyl-8-(2-methylpyrimidin-5-yl)-9H-purin-6-yl]amino}pyrrolidin-1-yl]pyridine-3-carbonitrile]
Selectivity versus PI3Kalpha [1]: >10 | IC50 [2]: 12 nM

CCn1c(-c2cnc(C)nc2)nc2c(N[C@H]3C[C@H](C(=O)OC)N(c4ccccn4)C3)ncnc21 [Compound 4-12, methyl (4S)-4-{[9-ethyl-8-(2-methylpyrimidin-5-yl)-9H-purin-6-yl]amino}-1-pyridin-2-yl-D-prolinate]
Selectivity versus PI3Kalpha [1]: >10 | IC50 [2]: 8.2 nM
